# What was measured:
# Assay in all cases: relative viability (nuclei count vs DMSO), 5 days (fraction); higher = more cells survive
# [1] = system: NCI-H1395
# Summary of the method: (§1)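 Medians of duplicate plates are given as relative viability. That measure is the nuclei count in treated wells divided by the count in vehicle wells. Counts were taken on 4× images of lung cancer cell lines in 1536-well plates, 5 days after pin-tool dosing the day after seeding with one drug alone or a fixed anchor-drug dose plus five library-drug doses (not always all listed) in √10 steps.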
# [2] = system: COR-L 105
# Summary of the method: as §1
# [3] = system: NCI-H2087
# Summary of the method: as §1
# [4] = system: SW 1573
# Summary of the method: as §1
# [5] = system: NCI-H1666
# Summary of the method: as §1
# [6] = system: NCI-H1437
# Summary of the method: as §1
# [7] = system: EKVX
# Summary of the method: as §1
# [8] = system: HOP-62
# Summary of the method: as §1
# [9] = system: LU99A
# Summary of the method: as §1
# [10] = system: PC-3 [JPC-3]
# Summary of the method: as §1
# [11] = system: NCI-H358
# Summary of the method: as §1
# [12] = system: LCLC-97TM1
# Summary of the method: as §1
# [13] = system: HCC-827
# Summary of the method: as §1
# [14] = system: 201T
# Summary of the method: as §1
# [15] = system: NCI-H2342
# Summary of the method: as §1
# [16] = system: BEN
# Summary of the method: as §1
# [17] = system: H3255
# Summary of the method: as §1
# [18] = system: HCC-44
# Summary of the method: as §1
# [19] = system: NCI-H2085
# Summary of the method: as §1
# [20] = system: EPLC-272H
# Summary of the method: as §1
# [21] = system: NCI-H1975
# Summary of the method: as §1
# [22] = system: LOU-NH91
# Summary of the method: as §1
# [23] = system: NCI-H647
# Summary of the method: as §1
structure (smiles),measurement,setting,value
CC1(C)CCC(c2ccc(Cl)cc2)=C(CN2CCN(c3ccc(C(=O)NS(=O)(=O)c4ccc(N[C@H](CCN5CCOCC5)CSc5ccccc5)c(S(=O)(=O)C(F)(F)F)c4)cc3)CC2)C1 [Navitoclax] + CC(=O)c1c(C)c2cnc(Nc3ccc(N4CCNCC4)cn3)nc2n(C2CCCC2)c1=O [Palbociclib] (partner 0.5 µM),relative viability,[1]; first compound 0.005 µM,0.617
same,relative viability,[1]; first compound 0.01581 µM,0.664
same,relative viability,[1]; first compound 0.05 µM,0.674
same,relative viability,[1]; first compound 0.1581 µM,0.653
same,relative viability,[1]; first compound 0.5 µM,0.583
same,relative viability,[2]; first compound 0.005 µM,0.408
same,relative viability,[2]; first compound 0.01581 µM,0.46
same,relative viability,[2]; first compound 0.05 µM,0.39
same,relative viability,[2]; first compound 0.1581 µM,0.427
same,relative viability,[2]; first compound 0.5 µM,0.34
same,relative viability,[3]; first compound 0.005 µM,0.22
same,relative viability,[3]; first compound 0.01581 µM,0.244
same,relative viability,[3]; first compound 0.1581 µM,0.255
same,relative viability,[3]; first compound 0.5 µM,0.257
same,relative viability,[4]; first compound 0.005 µM,0.417
same,relative viability,[4]; first compound 0.01581 µM,0.41
same,relative viability,[4]; first compound 0.05 µM,0.448
same,relative viability,[4]; first compound 0.1581 µM,0.399
same,relative viability,[4]; first compound 0.5 µM,0.38
same,relative viability,[5]; first compound 0.005 µM,0.623
same,relative viability,[5]; first compound 0.01581 µM,0.69
same,relative viability,[5]; first compound 0.05 µM,0.666
same,relative viability,[5]; first compound 0.1581 µM,0.665
same,relative viability,[5]; first compound 0.5 µM,0.726
same,relative viability,[6]; first compound 0.005 µM,0.295
same,relative viability,[6]; first compound 0.01581 µM,0.317
same,relative viability,[6]; first compound 0.05 µM,0.2
same,relative viability,[6]; first compound 0.1581 µM,0.291
same,relative viability,[6]; first compound 0.5 µM,0.308
same,relative viability,[7]; first compound 0.005 µM,0.44
same,relative viability,[7]; first compound 0.01581 µM,0.405
same,relative viability,[7]; first compound 0.05 µM,0.422
same,relative viability,[7]; first compound 0.1581 µM,0.403
same,relative viability,[7]; first compound 0.5 µM,0.388
same,relative viability,[8]; first compound 0.005 µM,0.449
same,relative viability,[8]; first compound 0.01581 µM,0.442
same,relative viability,[8]; first compound 0.05 µM,0.429
same,relative viability,[8]; first compound 0.1581 µM,0.391
same,relative viability,[8]; first compound 0.5 µM,0.448
same,relative viability,[9]; first compound 0.005 µM,0.392
same,relative viability,[9]; first compound 0.01581 µM,0.433
same,relative viability,[9]; first compound 0.1581 µM,0.437
same,relative viability,[9]; first compound 0.5 µM,0.48
same,relative viability,[10]; first compound 0.005 µM,0.576
same,relative viability,[10]; first compound 0.01581 µM,0.575
same,relative viability,[10]; first compound 0.05 µM,0.545
same,relative viability,[10]; first compound 0.1581 µM,0.531
same,relative viability,[10]; first compound 0.5 µM,0.506
same,relative viability,[11]; first compound 0.005 µM,0.128
same,relative viability,[11]; first compound 0.01581 µM,0.147
same,relative viability,[11]; first compound 0.05 µM,0.142
same,relative viability,[11]; first compound 0.1581 µM,0.121
same,relative viability,[11]; first compound 0.5 µM,0.134
same,relative viability,[12]; first compound 0.005 µM,0.239
same,relative viability,[12]; first compound 0.01581 µM,0.215
same,relative viability,[12]; first compound 0.05 µM,0.166
same,relative viability,[12]; first compound 0.1581 µM,0.203
same,relative viability,[12]; first compound 0.5 µM,0.241
same,relative viability,[13]; first compound 0.005 µM,0.582
same,relative viability,[13]; first compound 0.01581 µM,0.528
same,relative viability,[13]; first compound 0.05 µM,0.374
same,relative viability,[13]; first compound 0.1581 µM,0.477
same,relative viability,[13]; first compound 0.5 µM,0.437
same,relative viability,[14]; first compound 0.005 µM,0.342
same,relative viability,[14]; first compound 0.01581 µM,0.347
same,relative viability,[14]; first compound 0.05 µM,0.362
same,relative viability,[14]; first compound 0.1581 µM,0.365
same,relative viability,[14]; first compound 0.5 µM,0.355
same,relative viability,[15]; first compound 0.005 µM,0.611
same,relative viability,[15]; first compound 0.01581 µM,0.531
same,relative viability,[15]; first compound 0.05 µM,0.541
same,relative viability,[15]; first compound 0.1581 µM,0.477
same,relative viability,[15]; first compound 0.5 µM,0.629
same,relative viability,[16]; first compound 0.005 µM,0.475
same,relative viability,[16]; first compound 0.01581 µM,0.525
same,relative viability,[16]; first compound 0.05 µM,0.462
same,relative viability,[16]; first compound 0.1581 µM,0.399
same,relative viability,[16]; first compound 0.5 µM,0.268
same,relative viability,[17]; first compound 0.005 µM,0.304
same,relative viability,[17]; first compound 0.01581 µM,0.329
same,relative viability,[17]; first compound 0.05 µM,0.3
same,relative viability,[17]; first compound 0.1581 µM,0.312
same,relative viability,[17]; first compound 0.5 µM,0.316
same,relative viability,[18]; first compound 0.005 µM,0.968
same,relative viability,[18]; first compound 0.01581 µM,0.919
same,relative viability,[18]; first compound 0.05 µM,0.947
same,relative viability,[18]; first compound 0.1581 µM,0.893
same,relative viability,[18]; first compound 0.5 µM,0.956
same,relative viability,[19]; first compound 0.005 µM,0.45
same,relative viability,[19]; first compound 0.01581 µM,0.456
same,relative viability,[19]; first compound 0.05 µM,0.379
same,relative viability,[19]; first compound 0.1581 µM,0.482
same,relative viability,[19]; first compound 0.5 µM,0.502
same,relative viability,[20]; first compound 0.005 µM,0.325
same,relative viability,[20]; first compound 0.05 µM,0.324
same,relative viability,[20]; first compound 0.1581 µM,0.31
same,relative viability,[20]; first compound 0.5 µM,0.297
same,relative viability,[21]; first compound 0.005 µM,0.533
same,relative viability,[21]; first compound 0.01581 µM,0.661
same,relative viability,[21]; first compound 0.05 µM,0.437
same,relative viability,[21]; first compound 0.1581 µM,0.532
same,relative viability,[21]; first compound 0.5 µM,0.585
same,relative viability,[22]; first compound 0.005 µM,0.53
same,relative viability,[22]; first compound 0.01581 µM,0.523
same,relative viability,[22]; first compound 0.05 µM,0.441
same,relative viability,[22]; first compound 0.1581 µM,0.477
same,relative viability,[22]; first compound 0.5 µM,0.409
same,relative viability,[23]; first compound 0.005 µM,0.336
same,relative viability,[23]; first compound 0.01581 µM,0.359
same,relative viability,[23]; first compound 0.05 µM,0.24
same,relative viability,[23]; first compound 0.1581 µM,0.414
same,relative viability,[23]; first compound 0.5 µM,0.344

# From the supplement of paper PMC10307832
